Source: ChEMBL document CHEMBL1208727, “Synthesis and pharmacological evaluation of aryl aminosulfonamide derivatives as potent 5-HT(6) receptor antagonists” (Bioorg Med Chem Lett, 2010)
Activity calls are given as the source filed them. No cut-off for these calls is given here.

What was measured:
[1] = molecular target: 5-hydroxytryptamine receptor 6 (Homo sapiens, UniProt P50406); experiment: Binding affinity to human recombinant 5HT6 receptor expressed in CHO cells coexpressing pCRE-Luc assessed as inhibition of serotonin-induced increase in cAMP level by luciferase reporter gene assay; format: cell-based
Sequence of 5-hydroxytryptamine receptor 6 (P50406 whole entry): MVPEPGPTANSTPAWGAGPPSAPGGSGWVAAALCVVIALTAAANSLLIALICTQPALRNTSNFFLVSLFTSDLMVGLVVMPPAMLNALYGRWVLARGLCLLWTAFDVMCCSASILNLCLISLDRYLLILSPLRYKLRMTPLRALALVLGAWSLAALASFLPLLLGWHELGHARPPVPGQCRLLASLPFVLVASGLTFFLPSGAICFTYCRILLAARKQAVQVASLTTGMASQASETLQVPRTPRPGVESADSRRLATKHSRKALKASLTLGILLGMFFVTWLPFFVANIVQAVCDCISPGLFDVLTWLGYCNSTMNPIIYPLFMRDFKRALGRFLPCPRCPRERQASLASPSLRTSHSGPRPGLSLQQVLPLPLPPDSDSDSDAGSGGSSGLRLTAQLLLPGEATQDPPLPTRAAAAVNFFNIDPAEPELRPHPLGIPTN

[2] = Metabolic stability in Wistar rat liver microsomes at […] after 30 mins; format: ADME, Microsome; settings: read-out: Stability
Cytochrome P450 2D6 = Cytochrome P450 2D6 (Homo sapiens, UniProt P10635); experiment: Inhibition of human CY2D6
Sequence of Cytochrome P450 2D6 (P10635 whole entry): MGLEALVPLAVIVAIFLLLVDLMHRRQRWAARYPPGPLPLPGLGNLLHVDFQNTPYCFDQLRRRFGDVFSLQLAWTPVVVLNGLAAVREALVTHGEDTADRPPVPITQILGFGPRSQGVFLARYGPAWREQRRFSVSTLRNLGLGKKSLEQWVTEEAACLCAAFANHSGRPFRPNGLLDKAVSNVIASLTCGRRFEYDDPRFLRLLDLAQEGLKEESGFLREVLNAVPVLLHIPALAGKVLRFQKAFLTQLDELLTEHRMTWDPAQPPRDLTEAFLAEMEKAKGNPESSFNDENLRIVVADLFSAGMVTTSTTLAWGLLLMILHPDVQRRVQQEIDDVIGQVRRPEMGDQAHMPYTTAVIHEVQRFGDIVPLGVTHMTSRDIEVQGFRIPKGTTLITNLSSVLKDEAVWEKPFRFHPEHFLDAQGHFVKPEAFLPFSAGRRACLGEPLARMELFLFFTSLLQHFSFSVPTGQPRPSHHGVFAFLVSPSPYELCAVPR

Cytochrome P450 3A4 = Cytochrome P450 3A4 (Homo sapiens, UniProt P08684); experiment: Inhibition of human CY3A4
Sequence of Cytochrome P450 3A4 (P08684 whole entry): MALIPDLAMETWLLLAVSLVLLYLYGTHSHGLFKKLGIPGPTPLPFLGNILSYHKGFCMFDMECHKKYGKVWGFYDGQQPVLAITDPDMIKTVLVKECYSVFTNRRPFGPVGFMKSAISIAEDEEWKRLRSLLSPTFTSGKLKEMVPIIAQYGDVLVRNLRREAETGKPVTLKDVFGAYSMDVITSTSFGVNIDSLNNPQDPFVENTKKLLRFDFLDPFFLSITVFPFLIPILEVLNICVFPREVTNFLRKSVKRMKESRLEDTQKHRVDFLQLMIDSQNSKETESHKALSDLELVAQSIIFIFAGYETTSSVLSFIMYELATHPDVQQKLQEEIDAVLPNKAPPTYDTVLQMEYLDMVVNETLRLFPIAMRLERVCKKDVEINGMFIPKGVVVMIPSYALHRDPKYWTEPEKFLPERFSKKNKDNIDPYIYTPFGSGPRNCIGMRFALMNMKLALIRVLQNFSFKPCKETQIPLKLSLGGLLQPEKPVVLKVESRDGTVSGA

[3] = Metabolic stability in human liver microsomes at […] after 30 mins; format: ADME, Microsome; settings: read-out: Stability
[4] = Clearance in Wistar rat at 10 mg/kg, po; format: ADME, organism-based; design: dose 10 mg/kg, route oral; settings: in vivo
[5] = AUCt in Wistar rat at 10 mg/kg, po; format: ADME, organism-based; design: dose 10 mg/kg, route oral; settings: plasma
Rattus norvegicus [6] = experiment: Cognitive enhancing effect in Wistar rat at 10 mg/kg, po by novel object recognition test; format: functional, organism-based; design: dose 10 mg/kg
[7] = Cmax in Wistar rat at 10 mg/kg, iv; format: ADME, organism-based; design: dose 10 mg/kg, route intravenous; settings: in vivo
[8] = Apparent volume of distribution in Wistar rat at 10 mg/kg, iv; format: ADME, organism-based; design: dose 10 mg/kg, route intravenous; settings: in vivo, read-out: Vz
[9] = Cmax in Wistar rat at 10 mg/kg, po; format: ADME, organism-based; design: dose 10 mg/kg, route oral; settings: in vivo
[10] = Clearance in Wistar rat at 10 mg/kg, iv; format: ADME, organism-based; design: dose 10 mg/kg, route intravenous; settings: in vivo
[11] = Half life in Wistar rat at 10 mg/kg, po; format: ADME, organism-based; design: dose 10 mg/kg, route oral; settings: in vivo
Rattus norvegicus [12] = organism: Rattus norvegicus; experiment: Cognitive enhancing effect against scopolamine-induced acquisition memory deficit in Wistar rat by morris water maze test; format: functional, organism-based
[13] = Ratio of drug level brain to plasma in Wistar rat; format: ADME
[14] = AUCt in Wistar rat at 10 mg/kg, iv; format: ADME, organism-based; design: dose 10 mg/kg, route intravenous; settings: plasma
Rattus norvegicus [15] = experiment: Apparent volume of distribution in Wistar rat at 10 mg/kg, po; format: ADME, organism-based; design: dose 10 mg/kg, route oral; settings: in vivo
[16] = Oral bioavailability in Wistar rat at 10 mg/kg; format: ADME, organism-based; settings: in vivo
[17] = Half life in Wistar rat at 10 mg/kg, iv; format: ADME, organism-based; design: dose 10 mg/kg, route intravenous; settings: in vivo

| Kb [1] | Structure (SMILES) | further results |
| --- | --- | --- |
| 0.6 nM | COc1ccc(S(=O)(=O)Nc2ccccc2Br)cc1NC1CCNCC1 |  |
| 0.296 nM | COc1ccc(S(=O)(=O)Nc2ccccc2Br)cc1NC1CCN(C)CC1 |  |
| 0.19 nM | CCc1ccc(S(=O)(=O)Nc2ccccc2Br)cc1NC1CCN(C)CC1 | remaining at 0.5 h, […] [2]: 99%; IC50 (Cytochrome P450 2D6): > 45000 nM; IC50 (Cytochrome P450 3A4): 9620 nM; remaining at 0.5 h, […] [3]: 26% |
| 10 nM | COc1ccc(NS(=O)(=O)c2cccc(NC3CCN(C)CC3)c2)c(OC)c1 |  |
| 0.02 nM | COc1ccc(S(=O)(=O)Nc2cc(C)ccc2OC)cc1NC1CCN(C)CC1 |  |
| 16 nM | COc1ccc(OC)c(NS(=O)(=O)c2cccc(NC3CCN(C)CC3)c2)c1 |  |
| 1.23 nM | COc1ccc(S(=O)(=O)Nc2ccccc2)cc1NC1CCN(C)CC1 |  |
| 0.02 nM | COc1ccc(S(=O)(=O)Nc2cc(Cl)cc(Cl)c2OC)cc1NC1CCN(C)CC1 | CL/F [4]: 12.4 L/h/kg; AUC(0-t) [5]: 0.941 µg·h/mL; remaining at 0.5 h, […] [2]: 77%; Activity (Rattus norvegicus [6]): Active; Cmax [7]: 1.92 µg/mL; Vd [8]: 16.9 L/kg; Cmax [9]: 0.536 µg/mL; clearance [10]: 3.93 L/h/kg; half-life [11]: 1.72 h; Activity (Rattus norvegicus [12]): Active; IC50 (Cytochrome P450 2D6): 41700 nM; IC50 (Cytochrome P450 3A4): 8440 nM; Kp [13]: 0.08; remaining at 0.5 h, […] [3]: 21%; AUC(0-t) [14]: 2.53 µg·h/mL; Vz (Rattus norvegicus [15]): 34.332 L/kg; bioavailability [16]: 38%; half-life [17]: 2.96 h |
| 0.48 nM | COc1ccc(S(=O)(=O)Nc2ccccc2Cl)cc1NC1CCNCC1 |  |
| 1.31 nM | Cc1ccc(S(=O)(=O)Nc2ccccc2Br)cc1NC1CCN(C)CC1 |  |
| > 10000 nM | Cc1ccc(NS(=O)(=O)c2cccc(NC3CCN(C)CC3)c2)c(C)c1 |  |
| 38 nM | COc1ccc(S(=O)(=O)NCCc2ccccc2Br)cc1NC1CCN(C)CC1 |  |
| 3.36 nM | COc1ccc(S(=O)(=O)NCc2ccccc2)cc1NC1CCN(C)CC1 |  |
| 26 nM | COc1ccc(S(=O)(=O)NCCc2ccccc2Cl)cc1NC1CCN(C)CC1 |  |
| 4.26 nM | COc1ccc(S(=O)(=O)NCc2ccccc2)cc1NC1CCNCC1 |  |
| 0.584 nM | COc1ccc(S(=O)(=O)Nc2ccccc2Cl)cc1NC1CCN(C)CC1 |  |

Further lines, the molecule ahead of its results:

| Structure (SMILES) | Kb [1] | further results |
| --- | --- | --- |
| COc1ccc(S(=O)(=O)Nc2ccccc2Br)cc1N(C)C1CCNCC1 | 0.2 nM |  |
| CCc1ccc(S(=O)(=O)Nc2cc(Cl)cc(Cl)c2OC)cc1NC1CCN(C)CC1 | 1.65 nM |  |
| COc1ccc(S(=O)(=O)Nc2ccccc2Cl)cc1N(C)C1CCNCC1 | 0.86 nM |  |
| COc1ccc(NS(=O)(=O)c2ccccc2OC(F)F)cc1N1CCNCC1 |  | Ki [1]: < 10 nM |
| CCc1ccc(S(=O)(=O)Nc2ccccc2Br)cc1NC1CCNCC1 | 0.1 nM |  |
| COc1ccc(S(=O)(=O)NCc2ccccc2)cc1N(C)C1CCN(C)CC1 | 3.9 nM |  |
| CCN(c1cc(S(=O)(=O)Nc2ccccc2)ccc1OC)C1CCN(C)CC1 | 18.6 nM |  |
| CN1CCC(Nc2cccc(S(=O)(=O)Nc3c(F)cc(F)cc3Br)c2)CC1 | > 10000 nM |  |
| CN1CCC(Nc2cccc(S(=O)(=O)Nc3ccc(Br)cc3F)c2)CC1 | 12.2 nM |  |
| COc1ccc(S(=O)(=O)NCc2ccccc2)cc1N(C)C1CCNCC1 | 2.65 nM |  |
